Assay results: patent US12509451B2, “Heteroaryl amide inhibitors of CD38” (NAPA THERAPEUTICS LTD., priority 2020, dated 2025)

Experiments:
[1] = target: T1, recombinant human CD38 Protein (Homo sapiens, UniProt P28907); assay: Fluorescence-based NAD+ hydrolase activity assay with human recombinant CD38 protein (Assay 3); type: biochemical; settings: read-out: Assay 3 Arithmetic mean IC50
T1 construct: purchased R&D System
T1 sequence (P28907 1-300): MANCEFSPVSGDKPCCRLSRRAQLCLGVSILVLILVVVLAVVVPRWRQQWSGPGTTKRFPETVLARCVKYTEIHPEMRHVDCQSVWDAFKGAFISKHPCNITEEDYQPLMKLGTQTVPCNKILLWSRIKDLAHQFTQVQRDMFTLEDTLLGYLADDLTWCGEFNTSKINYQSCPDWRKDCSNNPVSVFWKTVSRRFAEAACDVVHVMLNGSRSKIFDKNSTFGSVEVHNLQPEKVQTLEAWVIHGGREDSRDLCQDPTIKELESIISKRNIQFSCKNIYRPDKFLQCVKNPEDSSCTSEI
Protocol: This protocol was modified from the following references (Muller et al. (1983); (Schultz et al. (2018); (Matalonga et al. (2017); and de Oliveira et al. (2018), supra.
(§1) NAD+ hydrolase activity of the human recombinant CD38 protein treated with test compounds was measured using a fluorescence-based assay. Briefly, recombinant human CD38 Protein (R&D System) was resuspended in 44 μl/well of Sucrose-Tris Buffer (Sucrose 0.25 M, Tris pH 7.4 40 mM) and plated in a 96-well black plate (CORNING) at a density of 10 ng/well.
Each test compound was received in a powder state and dissolved in DMSO as a 25 mM stock solution. Each test compound was serially diluted in order to generate a dose-response curve. The dilution series of each test compound in DMSO was prepared at 50× the concentrations to be assayed. Each test compound was diluted to generate a 5-fold dilution series of 8 concentrations from 20 μM to 0.256 nM in order to assay 8 final concentrations ranging from ranging from 400 nM to 25.6 pM. One μl of the 50× concentration compound series was added to each well of the plate containing 10 ng protein in Sucrose-Tris buffer.
The reaction was started adding nicotinamide 1,N^6-etheno-adenine dinucleotide (Sigma Aldrich) to reach a final concentration of 80 µM. The samples were excited at 321-15 nm and the emission of fluorescence was measured at 410-20 nm at 37° C. every minute for 1 hr in a Clariostar® microplate reader (BMG LABTECH). NAD+ hydrolase activity was calculated as the slope of the linear portion of the fluorescence-time curve using the MARS data analysis software (BMG LABTECH). The data were uploaded in the Collaborative Drug Design (CDD) Software and for each compound the IC50 was calculated by the software. […] For each plate, the z-factor was also calculated as a plate quality using the CDD software.

[2] = target: T1, recombinant human CD38 Protein; assay: Fluorescence-based NAD+ cyclase activity assay with human recombinant CD38 protein (Assay 2); type: biochemical; settings: read-out: Assay 2 Arithmetic mean IC50
Protocol: This protocol was modified from the de Oliveira et al., 2018 reference, supra.
as §1, with “cyclase” for “hydrolase”, “125” for “10”
Each test compound was received in a powder state and dissolved in DMSO as a 25 mM stock solution. Each test compound was serially diluted in order to generate a dose-response curve. The dilution series of each test compound in DMSO was prepared at 50 times the concentrations to be assayed. Each test compound was diluted to generate a 5-fold dilution series of 8 concentrations from 100 μM to 32 nM in order to assay 8 final concentrations ranging from 2 μM to 0.64 nM. One μl of the 50× concentration compound series was added to each well of the plate containing 125 ng of protein in Sucrose-Tris buffer.
The reaction was started adding nicotinamide guanine dinucleotide (NGD+) (Sigma Aldrich) to reach a final concentration of 150 µM. The samples were excited at 337-15 nm, and the emission of fluorescence was measured at 442-20 nm at 37° C. every minute for 1 hr in a Clariostar microplate reader (BMG LABTECH). NAD+ cyclase activity was calculated as the slope of the linear portion of the fluorescence-time curve using the MARS data analysis software (BMG LABTECH). The data were uploaded in the Collaborative Drug Design (CDD) Software, and for each compound the IC50 was calculated by the software. For each plate, the z-factor was also calculated as a plate quality using the CDD software.

Structure (SMILES)	IC50 [1] [nM]	IC50 [2] [nM]
COc1cc(C(=O)Nc2cccnc2)nc(-n2ccnc2)c1 [Compound 36]	1 to 50	51 to 1000
COc1cc(C(=O)Nc2ccnc(C(F)(F)F)c2)nc(-n2ccnc2)n1 [Compound 37, 2-(1H-imidazol-1-yl)-6-methoxy-N-(2-(trifluoromethyl)pyridin-4-yl)pyrimidine-4-carboxamide]	< 1	51 to 1000
CCOc1cc(C(=O)Nc2ccnc(C(F)(F)F)c2)nc(-n2ccnc2)n1 [Compound 38]	< 1	51 to 1000
COCCOc1cc(C(=O)Nc2ccnc(C(F)(F)F)c2)nc(-n2ccnc2)n1 [Compound 39, 2-(1H-imidazol-1-yl)-6-(2-methoxyethoxy)-N-(2-(trifluoromethyl)pyridin-4-yl)pyrimidine-4-carboxamide]	< 1	1 to 50
O=C(Nc1ccnc(C(F)(F)F)c1)c1cc(OC2CC2)nc(-n2ccnc2)n1 [Compound 40]	1 to 50	51 to 1000
Cn1cncc1-c1cccc(C(=O)Nc2cccnc2)n1 [Compound 42, 6-(1-methyl-1H-imidazol-5-yl)-N-(pyridin-3-yl)picolinamide]	1 to 50	1000 to 10000
Cn1cncc1-c1cccc(C(=O)Nc2ccc(C(F)(F)F)nc2)n1 [Compound 43]	1 to 50	51 to 1000
Cc1cc(C(=O)Nc2ccncc2)nc(-c2nccn2C)c1 [Compound 45]	1 to 50	51 to 1000
Cn1ccnc1-c1cccc(C(=O)Nc2ccc(C(F)(F)F)nc2)n1 [Compound 47]	1 to 50	51 to 1000
Cn1ccnc1-c1cccc(C(=O)Nc2cccnc2)n1 [Compound 48]	1 to 50	1000 to 10000
Cc1cc(C(=O)Nc2cccnc2)nc(-n2ccnc2)n1 [Compound 49, 2-(1H-imidazol-1-yl)-6-methyl-N-(pyridin-3-yl)pyrimidine-4-carboxamide]	< 1	1 to 50
Cc1cc(C(=O)Nc2ccncc2)nc(-n2ccnc2)n1 [Compound 50]	< 1	1 to 50
O=C(Nc1ccnc(C(F)(F)F)c1)c1cc(C2CC2)nc(-n2ccnc2)n1 [Compound 51, 6-cyclopropyl-2-(1H-imidazol-1-yl)-N-(2-(trifluoromethyl)pyridin-4-yl)pyrimidine-4-carboxamide]	< 1	51 to 1000
Cc1cc(C(=O)Nc2ccncc2)nc(-n2ccnc2)c1 [Compound 52, 6-(1H-imidazol-1-yl)-4-methyl-N-(pyridin-4-yl)picolinamide]	1 to 50	1 to 50
Cc1cc(C(=O)Nc2cccnc2)nc(-n2ccnc2)c1 [Compound 53]	1 to 50	51 to 1000
Cc1cc(C(=O)Nc2ccc(C(N)=O)nc2)nc(-n2ccnc2)c1 [Compound 54, N-(6-carbamoylpyridin-3-yl)-6-(1H-imidazol-1-yl)-4-methylpicolinamide]	1 to 50	1 to 50
Cc1cc(C(=O)Nc2ccnc(C(N)=O)c2)nc(-n2ccnc2)c1 [Compound 55]	< 1	51 to 1000
CNC(=O)c1cc(NC(=O)c2cc(C)cc(-n3ccnc3)n2)ccn1 [Compound 56]	1 to 50	51 to 1000
CNC(=O)c1ccc(NC(=O)c2cc(C)cc(-n3ccnc3)n2)cn1 [Compound 57]	< 1	1 to 50
Cc1ccc(-n2ccnc2)nc1C(=O)Nc1cccnc1 [Compound 59, 6-(1H-imidazol-1-yl)-3-methyl-N-(pyridin-3-yl)picolinamide]	1 to 50	51 to 1000
O=C(Nc1cccnc1)c1ccc(F)c(-n2ccnc2)n1 [Compound 61]	1 to 50	1000 to 10000
O=C(Nc1cccnc1)c1nc(-n2ccnc2)ccc1F [Compound 62]	1 to 50	1000 to 10000
Nc1cc(C(=O)Nc2cccnc2)nc(-n2ccnc2)c1 [Compound 67]	1 to 50	51 to 1000
